From patent publication US20240109900A1, “AZABICYCLIC SHP2 INHIBITORS” (IRBM S.P.A., priority 2021, published 2024) come the findings set out here.

SMILES strings stand for the structures. pIC50: −log10 of the molar value. Like-named read-outs stand apart in the source and are kept apart here. Some results are limits rather than exact numbers.

Assay [1] concerns ERK phosphorylation in KYSE-520 cells. The assay can be described thus: Phospho-ERK cellular assay. Format: cell-based. The note with it: KYSE-520 cells, 2 h at 37° C., phospho-ERK1/2 (Thr202/Tyr204) TR-FRET, read-out: PERK IC50. The gist of the method:
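TR-FRET read-out of ERK1/2 Thr202/Tyr204 phosphorylation was taken after overnight antibody incubation at room temperature. Before that, KYSE-520 cells were treated 2 h at 37 °C with compound dilutions and lysed 30 min. Percent inhibition relative to vehicle and cell-free wells was fitted four-parametrically to give IC50.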
For orientation: TR-FRET usually uses a lanthanide donor and a delayed reading to cut background.

The target in assay [2] is SHP-2 enzyme (Met1-Leu525) (Homo sapiens (Human), UniProt Q06124). In words: SHP2 inhibition enzymatic assay. The note with it: 0.5 nM SHP-2 activated by 500 nM IRS1 peptide, 75 μM DiFMUP substrate; read-out: SHP2wt-IC50. Format: biochemical. The method, boiled down:
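SHP-2 (Met1-Leu525), 0.5 nM, activated with 500 nM IRS1 bis-phosphopeptide, preincubated 30 min with compounds in HEPES pH 7.2 buffer with 5 mM DTT. 75 μM DiFMUP added for 30 min at room temperature, stopped with bpV; fluorescence read. IC50 from four-parameter logistic fit of % inhibition.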

The pIC50 is the IC50 on a negative log10 scale, so that one unit is a factor of ten.

Chain of SHP-2 enzyme (Met1-Leu525) (Q06124 1-525): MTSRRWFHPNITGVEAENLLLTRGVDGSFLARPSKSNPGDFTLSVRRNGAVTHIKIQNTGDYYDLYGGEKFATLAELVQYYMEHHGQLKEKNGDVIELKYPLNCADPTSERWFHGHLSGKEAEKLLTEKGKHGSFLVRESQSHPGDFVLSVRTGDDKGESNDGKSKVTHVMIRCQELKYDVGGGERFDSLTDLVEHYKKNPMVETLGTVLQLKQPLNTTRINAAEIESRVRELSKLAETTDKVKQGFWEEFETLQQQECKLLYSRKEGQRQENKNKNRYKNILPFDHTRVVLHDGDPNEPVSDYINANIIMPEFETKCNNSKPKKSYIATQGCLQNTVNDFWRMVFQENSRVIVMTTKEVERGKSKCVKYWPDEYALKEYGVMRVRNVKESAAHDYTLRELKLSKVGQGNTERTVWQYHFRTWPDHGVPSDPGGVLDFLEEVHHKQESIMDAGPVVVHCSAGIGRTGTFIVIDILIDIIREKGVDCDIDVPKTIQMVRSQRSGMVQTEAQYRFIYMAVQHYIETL

As to `Cc1c(-c2n[nH]c3nc(N4CC[C@@H]5[C@H](C4)[C@@]5(CN)c4ccccc4F)cnc23)ccc2c1nnn2C` [Example 204, ((1S,6R,7R)-3-(3-(1,4-dimethyl-1H-benzo[d][1,2,3]triazol-5-yl)-1H-pyrazolo[3,4-b]pyrazin-6-yl)-7-(2-fluorophenyl)-3-azabicyclo[4.1.0]heptan-7-yl)methanamine], the negative-log IC50 (pIC50) in assay [1] (Homo sapiens, KYSE-520, 2 h) was > 6.00; in assay [2] it was > 6.30.

On to `NC[C@]1(c2ccccc2F)[C@@H]2CCN(c3cnc4c(-c5ccnc(NC6CC6)c5Cl)n[nH]c4n3)C[C@@H]21` [Example 197, 4-(6-((1S,6R,7R)-7-(aminomethyl)-7-(2-fluorophenyl)-3-azabicyclo[4.1.0]heptan-3-yl)-1H-pyrazolo[3,4-b]pyrazin-3-yl)-3-chloro-N-cyclopropylpyridin-2-amine], for which the pIC50 in assay [1] (Homo sapiens, KYSE-520, 2 h) was > 6.00; in assay [2], > 6.30.

Consider `Cc1c(-c2c[nH]c3nc(N4CC[C@@H]5[C@H](C4)[C@@]5(CN)c4ccccc4F)cnc23)ccc2nn(C)cc12` [Example 157, ((1S,6R,7R)-3-(7-(2,4-dimethyl-2H-indazol-5-yl)-5H-pyrrolo[2,3-b]pyrazin-3-yl)-7-(2-fluorophenyl)-3-azabicyclo[4.1.0]heptan-7-yl)methanamine], for which the pIC50 in assay [1] (Homo sapiens, KYSE-520, 2 h) was > 6.00; in assay [2], > 6.30.

On to `NC[C@]1(c2ccccc2F)[C@@H]2CCN(c3cnc4c(-c5ccc(-c6nn[nH]n6)cc5Cl)n[nH]c4n3)C[C@@H]21` [Example 285, ((1S,6R,7R)-3-(3-(2-chloro-4-(2H-tetrazol-5-yl)phenyl)-1H-pyrazolo[3,4-b]pyrazin-6-yl)-7-(2-fluorophenyl)-3-azabicyclo[4.1.0]heptan-7-yl)methanamine], for which the pIC50 is < 5.30 in assay [1] (Homo sapiens, KYSE-520, 2 h) and > 6.30 in assay [2].

In the case of `Cc1c(-c2n[nH]c3nc(N4CC[C@@H]5[C@H](C4)[C@@]5(CN)c4ccccc4F)cnc23)ccc2nonc12` [Example 193, ((1S,6R,7R)-7-(2-fluorophenyl)-3-(3-(4-methylbenzo[c][1,2,5]oxadiazol-5-yl)-1H-pyrazolo[3,4-b]pyrazin-6-yl)-3-azabicyclo[4.1.0]heptan-7-yl)methanamine], the pIC50 in assay [1] (Homo sapiens, KYSE-520, 2 h) is > 6.00; in assay [2], > 6.30.

On to `NC[C@]1(c2ccccc2F)[C@@H]2CCN(c3cnc4c(-c5ccc(F)c(O)c5F)n[nH]c4n3)C[C@@H]21` [Example 355, 3-(6-((1S,6R,7R)-7-(aminomethyl)-7-(2-fluorophenyl)-3-azabicyclo[4.1.0]heptan-3-yl)-1H-pyrazolo[3,4-b]pyrazin-3-yl)-2,6-difluorophenol], for which the negative logarithm of the IC50 (pIC50) in assay [1] (Homo sapiens, KYSE-520, 2 h) is > 6.00; in assay [2], > 6.30.

Turning to `Cc1csc(C2(CN)C3CCN(c4cnc5c(Sc6ccnc(N)c6Cl)n[nH]c5n4)CC32)n1` (centres unmarked) [Example 93, 4-((6-(7-(aminomethyl)-7-(4-methylthiazol-2-yl)-3-azabicyclo[4.1.0]heptan-3-yl)-1H-pyrazolo[3,4-b]pyrazin-3-yl)thio)-3-chloropyridin-2-amine], the pIC50 in assay [1] (Homo sapiens, KYSE-520, 2 h) is > 6.00; in assay [2] it was > 6.30.

As to `Cc1cc(C2(CN)C3CCN(c4cnc5c(Sc6ccnc7ccsc67)n[nH]c5n4)CC32)no1` (centres unmarked) [Example 54, (7-(5-methylisoxazol-3-yl)-3-(3-(thieno[3,2-b]pyridin-7-ylthio)-1H-pyrazolo[3,4-b]pyrazin-6-yl)-3-azabicyclo[4.1.0]heptan-7-yl)methanamine], the pIC50 in assay [1] (Homo sapiens, KYSE-520, 2 h) was > 6.00; in assay [2] it was > 6.30.

As to `NC[C@]1(c2ccccc2F)[C@@H]2CCN(c3cnc4c(-c5ccn6ncnc6c5)n[nH]c4n3)C[C@@H]21` [Example 333, ((1S,6R,7R)-3-(3-([1,2,4]triazolo[1,5-a]pyridin-7-yl)-1H-pyrazolo[3,4-b]pyrazin-6-yl)-7-(2-fluorophenyl)-3-azabicyclo[4.1.0]heptan-7-yl)methanamine], the pIC50 in assay [1] (Homo sapiens, KYSE-520, 2 h) is > 6.00; in assay [2], > 6.30.

Regarding `NC[C@]1(c2ccccc2F)[C@@H]2CCN(c3cnc4c(-c5ccc6[nH]c(=O)[nH]c6c5Cl)n[nH]c4n3)C[C@@H]21` [Example 302], the negative logarithm of the IC50 (pIC50) in assay [1] was > 6.00; in assay [2], > 6.30.

For the molecule `Cc1nn(C)c(C)c1-c1n[nH]c2nc(N3CC[C@@H]4[C@H](C3)[C@@]4(CN)c3ccccc3F)cnc12` [Example 371, ((1S,6R,7R)-7-(2-fluorophenyl)-3-(3-(1,3,5-trimethyl-1H-pyrazol-4-yl)-1H-pyrazolo[3,4-b]pyrazin-6-yl)-3-azabicyclo[4.1.0]heptan-7-yl)methanamine], the pIC50 in assay [1] (Homo sapiens, KYSE-520, 2 h) is < 5.30; in assay [2] it was < 5.52.

In the case of `Cc1csc([C@@]2(CN)[C@@H]3CN(c4cnc5c(-c6ccc(C(N)=O)cc6Cl)n[nH]c5n4)C[C@@H]32)n1` [Example 512], the pIC50 in assay [1] was > 6.00; in assay [2], > 6.30.

On to `Cc1csc([C@@]2(CN)[C@@H]3CN(c4nc5[nH]nc(-c6ccc7nn(C)cc7c6Cl)c5c(=O)n4C)C[C@@H]32)n1` [Example 472, 6-((1R,5S,6r)-6-(aminomethyl)-6-(4-methylthiazol-2-yl)-3-azabicyclo[3.1.0]hexan-3-yl)-3-(4-chloro-2-methyl-2H-indazol-5-yl)-5-methyl-1,5-dihydro-4H-pyrazolo[3,4-d]pyrimidin-4-one], for which the negative-log IC50 (pIC50) in assay [1] (Homo sapiens, KYSE-520, 2 h) is > 6.00; in assay [2], > 6.30.

Turning to `NC[C@]1(c2ccccc2F)[C@@H]2CCN(c3cc(=O)n4cc(Sc5ccnc(N)c5Cl)ccc4n3)C[C@@H]21` [Example 410, 7-((2-amino-3-chloropyridin-4-yl)thio)-2-((1S,6R,7R)-7-(aminomethyl)-7-(2-fluorophenyl)-3-azabicyclo[4.1.0]heptan-3-yl)-4H-pyrido[1,2-a]pyrimidin-4-one], the negative logarithm of the IC50 (pIC50) was < 5.30 in assay [1] (Homo sapiens, KYSE-520, 2 h) and 5.52 to 6.30 in assay [2].

For the molecule `NC[C@]1(c2ncccc2F)[C@@H]2CCN(c3cnc4c(-c5cccn6nccc56)n[nH]c4n3)C[C@@H]21` [Example 140, ((1S,6R,7S)-7-(3-fluoropyridin-2-yl)-3-(3-(pyrazolo[1,5-a]pyridin-4-yl)-1H-pyrazolo[3,4-b]pyrazin-6-yl)-3-azabicyclo[4.1.0]heptan-7-yl)methanamine], the pIC50 in assay [1] (Homo sapiens, KYSE-520, 2 h) is > 6.00; in assay [2], > 6.30.

For the molecule `NC[C@]1(c2ccccc2)[C@@H]2CN(c3cnc4c(-c5cc(F)c6ncccc6c5)n[nH]c4n3)C[C@@H]21` [Example 455, ((1R,5S,6s)-3-(3-(8-fluoroquinolin-6-yl)-1H-pyrazolo[3,4-b]pyrazin-6-yl)-6-phenyl-3-azabicyclo[3.1.0]hexan-6-yl)methanamine], the negative-log IC50 (pIC50) in assay [1] (Homo sapiens, KYSE-520, 2 h) was > 6.00; in assay [2], > 6.30.

In the case of `CC1(C)C(=O)Nc2ccc(-c3n[nH]c4nc(N5CC[C@@H]6[C@H](C5)[C@@]6(CN)c5ccccc5F)cnc34)cc21` [Example 206, 5-(6-((1S,6R,7R)-7-(aminomethyl)-7-(2-fluorophenyl)-3-azabicyclo[4.1.0]heptan-3-yl)-1H-pyrazolo[3,4-b]pyrazin-3-yl)-3,3-dimethylindolin-2-one], the pIC50 in assay [1] (Homo sapiens, KYSE-520, 2 h) is > 6.00; in assay [2], > 6.30.

As for `Cc1cc(C2(CN)C3CCN(c4cnc5c(-c6ccc(Cl)c7cnccc67)n[nH]c5n4)CC32)no1` (centres unmarked) [Example 34, (3-(3-(8-chloroisoquinolin-5-yl)-1H-pyrazolo[3,4-b]pyrazin-6-yl)-7-(5-methylisoxazol-3-yl)-3-azabicyclo[4.1.0]heptan-7-yl)methanamine], the pIC50 in assay [1] (Homo sapiens, KYSE-520, 2 h) was > 6.00; in assay [2], > 6.30.

`NC[C@]1(c2ccccc2F)[C@@H]2CCN(c3cnc4c(-c5ccc(O)c(C(F)(F)F)c5)n[nH]c4n3)C[C@@H]21` [Example 360, 4-(6-((1S,6R,7R)-7-(aminomethyl)-7-(2-fluorophenyl)-3-azabicyclo[4.1.0]heptan-3-yl)-1H-pyrazolo[3,4-b]pyrazin-3-yl)-2-(trifluoromethyl)phenol]: the pIC50 is > 6.00 in assay [1] (Homo sapiens, KYSE-520, 2 h) and > 6.30 in assay [2].
